Source: PubChem BioAssay (NCI)
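1) Cells in 96-well plates. 2) Compound, 48 h, 5 concentrations. 3) Linear interpolation between surrounding doses. 4) Unreached endpoint = highest concentration. GI50 marks 50% less growth. TGI is the concentration that stops growth completely.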

Legend:
Test in all cases: NCI tumour cell line growth inhibition, 48 h
[1] = system: SK-MEL-5 melanoma
[2] = system: SF-268 CNS
[3] = system: OVCAR-5 ovarian
[4] = system: MOLT-4 leukemia
[5] = system: NCI-H460 lung
[6] = system: HCT-116 colon
[7] = system: MDA-MB-231 breast
[8] = system: ACHN renal
[9] = system: SK-MEL-28 melanoma
[10] = system: SK-MEL-2 melanoma

Cc1c(Cl)cccc1NC(=O)c1sc2nc3c(cc2c1N)CCCC3
GI50 [1]: 0.513 µM
TGI [1]: > 100 µM
GI50 [2]: 0.786 µM
TGI [2]: > 100 µM
GI50 [3]: > 100 µM
TGI [3]: > 100 µM
GI50 [4]: 0.481 µM
TGI [4]: > 100 µM
GI50 [5]: 0.473 µM
TGI [5]: > 100 µM
GI50 [6]: 0.425 µM
TGI [6]: > 100 µM
GI50 [7]: > 100 µM
TGI [7]: > 100 µM
GI50 [8]: 0.785 µM
TGI [8]: > 100 µM
TGI [9]: > 100 µM
GI50 [10]: 0.46 µM
TGI [10]: > 100 µM

COc1cccc(NC2=C(Cl)C(=O)N(Cc3ccc(Cl)cc3)C2=O)c1
GI50 [1]: 1.21 µM
TGI [1]: 6.09 µM
GI50 [2]: 3.02 µM
TGI [2]: 13.9 µM
GI50 [3]: 10 µM
TGI [3]: 43.2 µM
GI50 [4]: 1.36 µM
TGI [4]: > 100 µM
GI50 [5]: 2.93 µM
TGI [5]: 18.5 µM
GI50 [6]: 1.59 µM
TGI [6]: 13.5 µM
GI50 [7]: 2.15 µM
GI50 [8]: 6.43 µM
TGI [8]: 49.2 µM
GI50 [9]: 8.37 µM
TGI [9]: 36.3 µM
GI50 [10]: 12.5 µM
TGI [10]: > 23.8 µM

COC(=O)/C(=N\Nc1nnc(C)n1N)C(C#N)c1ccccc1 (stereo not drawn)
TGI [1]: > 100 µM
TGI [2]: > 100 µM
TGI [3]: > 100 µM
TGI [4]: > 100 µM
TGI [5]: > 100 µM
TGI [6]: > 100 µM
TGI [7]: > 100 µM
TGI [8]: > 71.1 µM
TGI [9]: > 100 µM
TGI [10]: > 100 µM

COc1cc(/C=N/NC(=O)c2ccccc2Nc2cccc(C(F)(F)F)c2)cc(OC)c1OC
GI50 [1]: 2.93 µM
TGI [1]: 10.8 µM
GI50 [2]: 2.05 µM
TGI [2]: 7.99 µM
GI50 [3]: 11.8 µM
TGI [3]: 33.1 µM
GI50 [4]: 3.14 µM
TGI [4]: 15.3 µM
GI50 [5]: 2.3 µM
TGI [5]: 6.33 µM
GI50 [6]: 2.48 µM
TGI [6]: 6.4 µM
GI50 [7]: 6.33 µM
TGI [7]: 20.5 µM
GI50 [8]: 3.3 µM
TGI [8]: 13.3 µM
GI50 [9]: 2.28 µM
TGI [9]: 8.16 µM
GI50 [10]: 9.63 µM
TGI [10]: 33.2 µM

O=C(c1ccc2ccccc2c1)c1c(C(F)(F)F)n([O-])c2ccc(F)cc2[n+]1=O
GI50 [1]: 1.75 µM
TGI [1]: 3.16 µM
GI50 [2]: 1.73 µM
TGI [2]: 3.37 µM
GI50 [3]: 1.78 µM
TGI [3]: 3.18 µM
GI50 [4]: 0.393 µM
TGI [4]: 1.97 µM
GI50 [5]: 1.83 µM
TGI [5]: 3.68 µM
GI50 [6]: 1.5 µM
TGI [6]: 2.97 µM
GI50 [7]: 1.48 µM
TGI [7]: 3.02 µM
GI50 [8]: 1.68 µM
TGI [8]: 3.04 µM
GI50 [9]: 1.68 µM
TGI [9]: 3.18 µM
GI50 [10]: 1.2 µM
TGI [10]: 2.82 µM

H-QIYKKYRTWYRKAWKVLGKV-NH2
GI50 [1]: 2.84 µM
TGI [1]: 8.7 µM
GI50 [2]: 3.99 µM
TGI [2]: 30.5 µM
GI50 [3]: 8.79 µM
TGI [3]: 22.5 µM
GI50 [4]: 11.7 µM
TGI [4]: 79.5 µM
GI50 [5]: 3.24 µM
TGI [5]: 12.4 µM
GI50 [6]: 10.8 µM
TGI [6]: 77.1 µM
GI50 [7]: 4.35 µM
TGI [7]: 17.9 µM
GI50 [8]: 12 µM
TGI [8]: 25.5 µM
GI50 [9]: 4.89 µM
TGI [9]: 22.5 µM
GI50 [10]: 16.5 µM
TGI [10]: 49.8 µM

Cc1ccc(S(=O)(=O)NC(CO)C(=O)O)cc1 (stereo not drawn)
TGI [1]: > 100 µM
TGI [2]: > 100 µM
TGI [3]: > 100 µM
TGI [4]: > 100 µM
TGI [5]: > 100 µM
TGI [6]: > 100 µM
TGI [7]: > 100 µM
TGI [8]: > 100 µM
TGI [9]: > 100 µM
TGI [10]: > 100 µM

COc1cc(Cn2c(-c3ccccc3)cc3c2-c2oncc2CC3)cc(OC)c1
GI50 [1]: 0.372 µM
TGI [1]: 2.02 µM
GI50 [2]: 0.876 µM
TGI [2]: > 100 µM
GI50 [3]: 0.551 µM
TGI [3]: > 100 µM
GI50 [4]: 0.427 µM
TGI [4]: > 100 µM
GI50 [5]: 0.333 µM
TGI [5]: 5.32 µM
GI50 [6]: 0.354 µM
TGI [6]: > 46.8 µM
GI50 [7]: 0.694 µM
TGI [7]: > 24.2 µM
GI50 [8]: 0.786 µM
TGI [8]: > 100 µM
GI50 [9]: 0.416 µM
TGI [9]: > 100 µM
GI50 [10]: 81.2 µM
TGI [10]: > 100 µM

Cn1cc(C2=C(c3cn(CCCCC(=N)N)c4ccccc34)C(=O)NC2=O)c2ccccc21
GI50 [1]: > 23.6 µM
TGI [1]: > 25 µM
GI50 [2]: > 25 µM
TGI [2]: > 25 µM
GI50 [3]: > 25 µM
TGI [3]: > 25 µM
GI50 [4]: 22.1 µM
TGI [4]: > 25 µM
GI50 [5]: > 23.8 µM
TGI [5]: > 25 µM
GI50 [6]: 17.5 µM
TGI [6]: > 25 µM
GI50 [7]: > 25 µM
TGI [7]: > 25 µM
GI50 [8]: > 25 µM
TGI [8]: > 25 µM
GI50 [9]: > 25 µM
TGI [9]: > 25 µM
GI50 [10]: 12.6 µM
TGI [10]: > 25 µM

O=C1/C(=C\c2ccccc2)C2OCC=C3CN4CCC56c7ccccc7N1C5C2C3CC46 (stereo not drawn)
GI50 [1]: 4.84 µM
TGI [1]: 17.4 µM
GI50 [2]: 79.3 µM
TGI [2]: > 100 µM
GI50 [3]: > 100 µM
TGI [3]: > 100 µM
GI50 [4]: 7.23 µM
TGI [4]: > 100 µM
GI50 [5]: 6.4 µM
TGI [5]: > 100 µM
GI50 [6]: 6 µM
TGI [6]: > 100 µM
GI50 [7]: 6.92 µM
TGI [7]: > 100 µM
GI50 [8]: 7.98 µM
TGI [8]: > 100 µM
GI50 [9]: 2.61 µM
TGI [9]: 5.44 µM
GI50 [10]: 3.78 µM
TGI [10]: 18.4 µM

Cc1ccc(-c2n[nH]c(=O)c3noc(-c4ccc(C)cc4)c23)cc1
GI50 [1]: 0.97 µM
TGI [1]: > 100 µM
GI50 [2]: 2.21 µM
TGI [2]: 27.7 µM
GI50 [3]: 5.99 µM
TGI [3]: > 100 µM
GI50 [4]: 1.95 µM
TGI [4]: > 100 µM
GI50 [5]: 0.751 µM
TGI [5]: 25 µM
GI50 [6]: 0.557 µM
TGI [6]: 75.5 µM
GI50 [7]: 1.77 µM
TGI [7]: 39.8 µM
GI50 [8]: 3.16 µM
TGI [8]: 73.3 µM
GI50 [9]: 10.2 µM
TGI [9]: > 100 µM
GI50 [10]: 0.451 µM
TGI [10]: 9.49 µM

C/C(=N/O)c1ccc(Nc2cc(-n3ccnc3)c3ccccc3n2)cc1
GI50 [1]: 16.3 µM
TGI [1]: > 100 µM
GI50 [2]: > 100 µM
TGI [2]: > 100 µM
GI50 [3]: 86.6 µM
TGI [3]: > 100 µM
GI50 [4]: 2.95 µM
TGI [4]: 18.5 µM
GI50 [5]: 21.5 µM
TGI [5]: > 100 µM
GI50 [6]: 14.6 µM
TGI [6]: 38.9 µM
GI50 [7]: 8.81 µM
TGI [7]: 38.2 µM
GI50 [8]: 18.6 µM
TGI [8]: 90.8 µM
GI50 [9]: 70.4 µM
TGI [9]: > 100 µM
GI50 [10]: 38.5 µM
TGI [10]: > 100 µM

NC(=O)c1ccc(N(C(N)=O)c2c(F)cccc2F)nc1-c1ccc(F)cc1F
GI50 [1]: > 100 µM
TGI [1]: > 100 µM
GI50 [2]: > 100 µM
TGI [2]: > 100 µM
GI50 [3]: > 100 µM
TGI [3]: > 100 µM
GI50 [4]: > 100 µM
TGI [4]: > 100 µM
GI50 [5]: > 100 µM
TGI [5]: > 100 µM
GI50 [6]: > 100 µM
TGI [6]: > 100 µM
GI50 [7]: > 100 µM
TGI [7]: > 100 µM
GI50 [8]: > 100 µM
TGI [8]: > 100 µM
GI50 [9]: > 100 µM
TGI [9]: > 100 µM
GI50 [10]: > 100 µM
TGI [10]: > 100 µM
